These results are taken from patent US20090246169A1, “INDOLOPYRIDINES AS EG5 KINESIN MODULATORS” (priority 2006, published 2009).

The assay has as its system RKO p21 colon adenocarcinoma cells, uninduced (proliferating). The assay is described as follows: Alamar Blue cell viability assay, RKO p21 uninduced (proliferating). In kind it is cell-based. Particulars: Homo sapiens; anti-proliferative/cytotoxic activity, 72 hours, without Ponasterone A; read-out: −log EC50 [mol/l] RKO p21 uninduced (proliferating) (converted). As to the method: The anti-proliferative/cytotoxic activity of the compounds described herein can be tested on subclones of RKO human colon adenocarcinoma cells (Schmidt et al., Oncogene 19, 2423-2429; 2000) using the Alamar Blue cell viability assay (described in O'Brien et al. Eur J Biochem 267, 5421-5426, 2000). The compounds are dissolved as 10 mM solutions in DMSO and subsequently diluted in semi-logarithmic steps. DMSO dilutions are further diluted 1:100 into Dulbecco's modified Eagle's medium (DMEM) containing 10% fetal calf serum to a final concentration twice as much as the final concentration in the test. RKO subclones are seeded into 96 well flat bottom plates at a density of 4000 cells per well in a volume of 50 μl per well. 24 hours after seeding the 50 μl each of the compound dilutions in DMEM medium are added into each well of the 96 well plate. Each compound dilution is tested as triplicates. Wells containing untreated control cells are filled with 50 μl DMEM medium containing 1% DMSO. The cells are then incubated with the substances for 72 hours at 37° C. in a humidified atmosphere containing 5% carbon dioxide. To determine the viability of the cells, 10 μl of an Alamar Blue solution (Biosource) are added and the fluorescence is measured at an extinction of 544 nm and an emission of 590 nm. For the calculation of the cell viability the emission value from untreated cells is set as 100% viability and the emission rates of treated cells are set in relation to the values of untreated cells. Viabilities are expressed as % values. The Graphpad Prism program is used for the calculation of EC50 values for anti-proliferative/cytotoxic activity out of the obtained dose-response curves.
To determine the cell cycle specific mode of action, subclones of RKO colon adenocarcinoma cells (RKOp21 or RKOp27 as described by Schmidt et al. in Oncogene 19, 2423-2429; 2000) are seeded into 96 well flat bottom plates at a density of 16000 cells per well in a volume of 50 μl per well in DMEM growth medium with 10% FCS containing 10 μM Ponasterone A. 24 hours after seeding the 50 μl each of the compound dilutions in DMEM medium are added into each well of the 96-well plate. Each compound dilution is tested as triplicates. Wells containing untreated control cells are filled with 50 μl DMEM medium containing 1% DMSO. The cells are then incubated with the substances for 72 hours at 37° C. in a humidified atmosphere containing 5% carbon dioxide. To determine the viability of the cells, 10 μl of an Alamar Blue solution (Biosource) are added and the fluorescence is measured at an extinction of 544 nm and an emission of 590 nm. For the calculation of the cell viability the emission value from untreated cells is set as 100% viability and the emission rates of treated cells are set in relation to the values of untreated cells. Viabilities are expressed as % values. The Graphpad Prism program (GraphPad Software, Inc) is used for the calculation of EC50 values out of the obtained dose-response curves. Viability is compared of proliferating cells grown in the absence of the inducer Ponasterone A, versus viability of cells arrested by the expression of ectopic p27Kip1 induced by Ponasterone A.
Representative values for anti-proliferation/cytotoxicity [measured as −log EC50 (mol/l)] determined in the aforementioned assays follow from the following tables B1 and B2, in which the numbers of the compounds correspond to the numbers of the examples.
Take `COc1ccc2[nH]c3c(c2c1)C[C@@]1(C)C(=O)N(CCNC(C)C)C(=O)N1[C@@H]3c1ccccc1` (racemic) [Example 19, (3aSR,10RS)-2-(2-Isopropylamino-ethyl)-6-methoxy-3a-methyl-10-phenyl-3a,4,9,10-tetrahydro-2,9,10a-triaza-cyclopenta[b]fluorene-1,3-dione]: the EC50 is at most 1000 nM.
The same measure for `COc1ccc2[nH]c3c(c2c1)C[C@@]1(C)C(=O)N(CCCN2CCC(C)CC2)C(=O)N1[C@@H]3c1ccccc1` (racemic) [Example 66, (3aSR, 10RS)-6-Methoxy-3a-methyl-2-[3-(4-methyl-piperidin-1-yl)-propyl]-10-phenyl-3a,4,9,10-tetrahydro-2,9,10a-triaza-cyclopenta[b] fluorene-1,3-dione]: at most 1000 nM; for `C=CCNCCCN1C(=O)N2[C@H](c3ccccc3)c3[nH]c4ccc(OC)cc4c3C[C@@]2(C)C1=O` (racemic) [Example 77, (3aSR, 10RS)-2-(3-Allyl-amino-propyl)-6-methoxy-3a-methyl-10-phenyl-3a,4,9,10-tetrahydro-2,9,10a-triaza-cyclopenta[b]fluorene-1,3-dione]: at most 1000 nM; for `COc1ccc2[nH]c3c(c2c1)C[C@@]1(C)C(=O)N(CCN2CC=CCC2)C(=O)N1[C@@H]3c1ccccc1` (racemic) [Example 33, (3aSR, 10RS)-2-[2-(3,6-Dihydro-2H-pyridin-1-yl)-ethyl]-6-methoxy-3a-methyl-10-phenyl-3a,4,9,10-tetra-hydro-2,9,10a-triaza-cyclo-penta[b]fluorene-1,3-dione]: at most 1000 nM.
To `C#CCNCCN1C(=O)N2[C@H](c3ccccc3)c3[nH]c4ccc(OC)cc4c3C[C@@]2(C)C1=O` (racemic) [Example 29, (3aSR, 10RS)-6-Methoxy-3a-methyl-10-phenyl-2-(2-prop-2-ynylamino-ethyl)-3a,4,9,10-tetrahydro-2,9,10a-triaza-cyclopenta[b]fluorene-1,3-dione] belongs at most 1000 nM.
To `COc1ccc2[nH]c3c(c2c1)C[C@@]1(C)C(=O)N(CCNCC2CC2)C(=O)N1[C@@H]3c1ccccc1` (racemic) [Example 25, (3aSR, 10RS)-2-[2-(Cyclo-propylmethyl-amino)-ethyl]-6-methoxy-3a-methyl-10-phenyl-3a,4,9,10-tetrahydro-2,9,10a-triaza-cyclopenta [b]fluorene-1,3-dione] belongs at most 1000 nM.
For `CNCCN1C(=O)N2[C@H](c3ccccc3)c3[nH]c4ccc(OC)cc4c3C[C@@]2(C)C1=O` (racemic) [Example 14, (3aSR,10RS)-6-Methoxy-3a-methyl-2-(2-methylamino-ethyl)-10-phenyl-3a,4,9,10-tetrahydro-2,9,10a-triaza-cyclopenta[b]fluorene-1,3-dione], the EC50 was at most 1000 nM.
To `C=CCNCCN1C(=O)N2[C@H](c3ccccc3)c3[nH]c4ccc(OC)cc4c3C[C@@]2(C)C1=O` (racemic) [Example 28, (3aSR, 10RS)-2-(2-Allyl-amino-ethyl)-6-methoxy-3a-methyl-10-phenyl-3a,4,9,10-tetrahydro-2,9,10a-triaza-cyclopenta[b]fluorene-1,3-dione] belongs at most 1000 nM; to `CCNCCCN1C(=O)N2[C@H](c3ccccc3)c3[nH]c4ccc(OC)cc4c3C[C@@]2(C)C1=O` (racemic) [Example 44, (3aSR, 10RS)-2-(3-Ethyl-amino-propyl)-6-methoxy-3a-methyl-10-phenyl-3a,4,9,10-tetrahydro-2,9,10a-triaza-cyclopenta[b]fluorene-1,3-dione], at most 1000 nM.
`C#CC(C)NCCN1C(=O)N2[C@H](c3ccccc3)c3[nH]c4ccc(OC)cc4c3C[C@@]2(C)C1=O` (stereo partly drawn) [Example 48, (3aSR, 10RS)-6-Methoxy-3a-methyl-2-[2-(R)-1-methyl-prop-2-ynylamino)-ethyl]-10-phenyl-3a,4,9,10-tetrahydro-2,9,10a-triaza-cyclopenta [b]fluorene-1,3-dione and (3aSR, 10RS)-6-Methoxy-3a-methyl-2-[2-(S)-1-methyl-prop-2-ynylamino)-ethyl]-10-phenyl-3a,4,9,10-tetra-hydro-2,9,10a-triaza-cyclo-penta[b]fluorene-1,3-dione]: the EC50 is at most 1000 nM.
As to `COc1ccc2[nH]c3c(c2c1)C[C@@]1(C)C(=O)N(CCNC2CC2)C(=O)N1[C@@H]3c1ccccc1` (racemic) [Example 49, (3aSR, 10RS)-2-(2-Cyclo-propylamino-ethyl)-6-methoxy-3a-methyl-10-phenyl-3a,4,9,10-tetrahydro-2,9,10a-triaza-cyclopenta [b]fluorene-1,3-dione], the EC50 is at most 1000 nM.
As to `CCN(CC)CCN1C(=O)N2[C@H](c3ccccc3)c3[nH]c4ccc(OC)cc4c3C[C@@]2(C)C1=O` (racemic) [Example 41, (3aSR, 10RS)-2-(2-Diethyl-amino-ethyl)-6-methoxy-3a-methyl-10-phenyl-3a,4,9,10-tetrahydro-2,9,10a-triaza-cyclopenta[b]fluorene-1,3-dione], the EC50 was at most 1000 nM.
Take `COc1ccc2[nH]c3c(c2c1)C[C@@]1(C)C(=O)N(CCCN2CC=CC2)C(=O)N1[C@@H]3c1ccccc1` (racemic) [Example 64, (3aSR, 10RS)-2-[3-(2,5-Dihydro-pyrrol-1-yl)-propyl]-6-methoxy-3a-methyl-10-phenyl-3a,4,9,10-tetrahydro-2,9,10a-triaza-cyclopenta [b]fluorene-1,3-dione]: the EC50 is at most 1000 nM.
The same measure for `COc1ccc2[nH]c3c(c2c1)C[C@@]1(C)C(=O)N(CCN2CCN(C(C)=O)CC2)C(=O)N1[C@@H]3c1ccccc1` (racemic) [Example 47, (3aSR, 10RS)-2-[2-(4-Acetyl-piperazin-1-yl)-ethyl]-6-methoxy-3a-methyl-10-phenyl-3a,4,9,10-tetrahydro-2,9,10a-triaza-cyclopenta[b] fluorene-1,3-dione]: at most 1000 nM; for `COc1ccc2[nH]c3c(c2c1)C[C@@]1(C)C(=O)N(CCNCC(C)C)C(=O)N1[C@@H]3c1ccccc1` (racemic) [Example 35, (3aSR, 10RS)-2-(2-Isobutyl-amino-ethyl)-6-methoxy-3a-methyl-10-phenyl-3a,4,9,10-tetrahydro-2,9,10a-triaza-cyclopenta[b]fluorene-1,3-dione]: at most 1000 nM; for `COc1ccc2[nH]c3c(c2c1)C[C@@]1(C)C(=O)N(CCCN2CCCCCC2)C(=O)N1[C@@H]3c1ccccc1` (racemic) [Example 78, (3aSR, 10RS)-2-(3-Azepan-1-yl-propyl)-6-methoxy-3a-methyl-10-phenyl-3a,4,9,10-tetrahydro-2,9,10a-triaza-cyclopenta[b]fluorene-1,3-dione]: at most 1000 nM.
On to `COc1ccc2[nH]c3c(c2c1)C[C@@]1(C)C(=O)N(CCCNC(C)C)C(=O)N1[C@@H]3c1ccccc1` (racemic) [Example 51, (3aSR, 10RS)-2-(3-Isopropylamino-propyl)-6-methoxy-3a-methyl-10-phenyl-3a,4,9,10-tetrahydro-2,9,10a-triaza-cyclopenta[b] fluorene-1,3-dione], for which the EC50 was at most 1000 nM.
On to `COc1ccc2[nH]c3c(c2c1)C[C@@]1(C)C(=O)N(CCCN2CCCCC2)C(=O)N1[C@@H]3c1ccccc1` (racemic) [Example 65, (3aSR, 10RS)-6-Methoxy-3a-methyl-10-phenyl-2-(3-piperidin-1-yl-propyl)-3a,4,9,10-tetrahydro-2,9,10a-triaza-cyclopenta[b]fluorene-1,3-dione], for which the EC50 was at most 1000 nM.
The same measure for `COc1ccc2[nH]c3c(c2c1)C[C@@]1(C)C(=O)N(CCNC(C)(C)C)C(=O)N1[C@@H]3c1ccccc1` (racemic) [Example 27, (3aSR, 10RS)-2-(2-tert-Butylamino-ethyl)-6-methoxy-3a-methyl-10-phenyl-3a,4,9,10-tetrahydro-2,9,10a-triaza-cyclopenta[b]fluorene-1,3-dione]: at most 1000 nM.
